Experiments:
[1] = biological target: T1, GPER (Homo sapiens, UniProt Q99527); assay: Calcium mobilization antagonism assay in indo1-AM-loaded HL-60 cells (against EC80 of G-1); assay type: cell-based; conditions: Table 3; HL-60 cells endogenously expressing GPER; mean ± SD of three IC50 values from triplicates; read-out: IC50 (nM) of the inhibition of calcium mobilization
T1 construct: HL-60 cells (a human promyelocytic leukemia cell line) which endogenously expresses GPER; host or cells: HL-60
T1 sequence (Q99527 whole entry): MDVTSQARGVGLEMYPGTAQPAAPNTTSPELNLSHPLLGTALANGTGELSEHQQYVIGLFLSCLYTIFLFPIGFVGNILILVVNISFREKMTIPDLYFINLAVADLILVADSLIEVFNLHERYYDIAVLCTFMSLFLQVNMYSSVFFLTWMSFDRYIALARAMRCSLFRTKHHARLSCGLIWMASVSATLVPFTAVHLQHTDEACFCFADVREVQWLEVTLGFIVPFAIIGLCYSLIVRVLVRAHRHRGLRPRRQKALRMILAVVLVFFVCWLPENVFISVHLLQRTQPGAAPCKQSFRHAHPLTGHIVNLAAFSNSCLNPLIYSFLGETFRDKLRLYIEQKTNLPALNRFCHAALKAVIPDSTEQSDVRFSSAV
Method: Human Myelocytic Leukemia (HL-60) cells were grown in phenol red free media containing 10% […] fetal bovine serum (FBS), 1% Pen-Strep, and 1% Glutamax. Cells were grown to no more than 1×10^6 cells/mL to prevent differentiation before being split. Prior to assay cells were transferred to phenol red free media containing charcoal-stripped FBS. On the day of the assay cells were centrifuged down at 16.4 G for 5 minutes and washed with 50:1 HBSS/HEPES. Cells were resuspended at 1×10^7 cells/mL in 50:1 HBSS/HEPES. To the resuspended cells, 0.05% pluronic acid and 5 uM of fluorescent calcium indicator, Indo-1AM, were added. The dye solution was incubated for 0.5 hrs at room temperature with rocking. After 30 minutes cells were spun down, and resuspended in 50:1 HBSS/HEPES. Cells were placed on ice for at least 5 minutes and then resuspended in 8.5 mL of 50:1 HBSS/HEPES (containing probenacid) for agonism assays or 6.5 mL of 50:1 HBSS/HEPES (containing probenacid) for antagonism assays. For agonism assays 160 μL of cell suspension were added to a 96-well plate and were incubated at 37° for 10 minutes in a FlexStation® 3 plate reader (Molecular Devices). Inside the plate reader, 40 μL of agonist were added to each well and excited with 350 nm and read at emissions of 405 nm and 490 nm. For antagonist assays, 120 μL of cell suspension were added to a 96-well plate. In addition to the cell suspension 40 μL of antagonist were added to the wells. Cells with antagonists were incubated at 37° for 15 minutes in FlexStation® 3 plate reader (Molecular Devices). Inside the plate reader, 40 μL of agonist at the EC80 were added to each well and excited with 350 nm and read at emissions of 405 nm and 490 nm.
In vitro biological evaluation using calcium mobilization. HL-60 cells were grown in 10% charcoal-stripped RPMI 72 hours before assays were performed. Cells were centrifuged and counted with a hemocytometer from Hausser Scientific (Bedford, Mass.). The assay required 100,000 cells per well, for a total number of cells on a 96-well plate assay of about 1×10 (Matthews and Gustafsson, 2003). HL-60 cells (1×10 (Matthews and Gustafsson, 2003)) were incubated in 50:1 Hanks balanced salt solution (Millipore Sigma, Saint Louis, Mo. and HEPES (Gibco by Life Technologies, Gaithersburg, Md.) containing 5 μM indo1-AM (Thermo Fischer Scientific, Waltham, Mass.) and 0.05% pluronic acid (AAT Bioquest Inc., Sunnyvale, Calif.) for 0.5 h at RT. Cells were spun down and washed with 50:1 HBSS/HEPES, and resuspended in media. Resuspension was placed on ice for no longer than 5 mins. Cells were loaded into plate at 100,000 cells/well. For agonist cells were immediately incubated for 15 mins at 37° C. Following the 15 mins incubation FlexStation 3 Multimode Plate Reader (Molecular Devices, Sunnyvale, Calif.) added the appropriate amount of agonist and was read for 150 seconds at 37° C. For antagonists once the cells were seeded, antagonist was added and incubated for 15 mins at 37° C. After 15 mins of equilibration, the EC80 of G-1 was added by the FlexStation and read for 150 secs at 37° C. Calcium mobilization was determined ratiometrically using λex 350 nm and λem 405/490 nm.

[2] = biological target: T2, ERβ (Homo sapiens, UniProt Q92731); assay: ERβ PolarScreen fluorescence polarization competitor assay; assay type: binding; conditions: below 10 μM
T2 construct: purchased Invitrogen (Carlsbad, Calif.)
T2 sequence (Q92731 whole entry): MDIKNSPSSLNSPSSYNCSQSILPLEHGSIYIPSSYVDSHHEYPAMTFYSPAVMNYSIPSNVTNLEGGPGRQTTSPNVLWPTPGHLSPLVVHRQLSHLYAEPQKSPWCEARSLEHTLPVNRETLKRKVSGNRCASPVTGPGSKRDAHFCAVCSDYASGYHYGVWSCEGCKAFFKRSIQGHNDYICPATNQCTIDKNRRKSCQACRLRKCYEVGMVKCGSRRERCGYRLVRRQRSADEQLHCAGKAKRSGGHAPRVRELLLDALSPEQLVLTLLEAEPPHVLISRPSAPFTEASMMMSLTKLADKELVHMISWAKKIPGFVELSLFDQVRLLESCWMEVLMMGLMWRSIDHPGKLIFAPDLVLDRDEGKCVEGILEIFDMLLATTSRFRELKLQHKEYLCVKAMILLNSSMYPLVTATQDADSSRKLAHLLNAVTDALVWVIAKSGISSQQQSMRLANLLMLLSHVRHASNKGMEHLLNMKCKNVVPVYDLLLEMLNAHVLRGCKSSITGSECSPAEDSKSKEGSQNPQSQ
Method: (§1) ERα and ERβ Fluorescence Polarization Assay. The ERα and ERβ PolarScreen™ Competitor Assays by Invitrogen (Carlsbad, Calif.) were purchased. The concentrations of the ERα and ERβ enzyme varied between the two assays. A 4× sample of ERα was prepared for a final concentration of 75 nM. Conversely, a 4× sample of ERβ was prepared for a final concentration of 23 nM within the assay. For both ERα and ERβ a 4× aliquot of Fluoromone was prepared for a final assay concentration of 4.5 nM. Despite the differences in concentration of ERα and ERβ, the binding assay protocol for the two different enzymes remained the same. Drug dilutions were prepared for a 2× dilution in the ER specific buffer that was provided within the assay kit. In addition to the drug dilutions a 2× aliquot of Fluoromone was prepared by adding 10 μL of 4× with 10 μL of ER specific buffer. A 2× dilution of enzyme and fluorophore was achieved by adding equal portions of each to each other. To a black 384-plate well plate, 10 μL of compound were added to the wells followed by 10 μL of the 2× mixture of enzyme and fluoromone. Two controls were included in the plate design. In one control, enzyme and compound were omitted so that only ER specific buffer and fluoromone remained. A separate control contained the enzyme and fluoromone control. […] The plate was incubated at RT for 2 hours before being read with λex 485 nm and λem 535 nm.

[3] = biological target: T3, ERα (Homo sapiens, UniProt P03372); assay: ERα PolarScreen fluorescence polarization competitor assay; assay type: binding
T3 construct: purchased Invitrogen (Carlsbad, Calif.)
T3 sequence (P03372 1-595): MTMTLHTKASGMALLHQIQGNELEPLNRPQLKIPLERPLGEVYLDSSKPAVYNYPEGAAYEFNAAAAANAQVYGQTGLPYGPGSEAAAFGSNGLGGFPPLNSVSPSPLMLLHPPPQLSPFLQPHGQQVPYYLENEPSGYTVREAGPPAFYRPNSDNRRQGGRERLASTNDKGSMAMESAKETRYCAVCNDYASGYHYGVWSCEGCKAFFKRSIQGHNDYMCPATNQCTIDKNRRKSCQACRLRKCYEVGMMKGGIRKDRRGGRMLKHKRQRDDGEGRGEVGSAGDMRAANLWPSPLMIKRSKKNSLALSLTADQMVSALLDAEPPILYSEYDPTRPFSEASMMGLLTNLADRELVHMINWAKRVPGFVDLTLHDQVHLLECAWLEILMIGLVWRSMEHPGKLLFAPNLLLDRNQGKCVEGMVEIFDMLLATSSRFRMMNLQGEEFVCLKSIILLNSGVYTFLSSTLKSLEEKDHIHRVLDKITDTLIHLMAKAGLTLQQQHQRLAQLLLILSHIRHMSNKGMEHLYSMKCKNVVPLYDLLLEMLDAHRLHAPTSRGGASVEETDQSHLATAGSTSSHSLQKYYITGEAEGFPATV
Method: as §1

[4] = biological target: T1, GPER; assay: cAMP HTRF antagonism assay (G-1 induced inhibition of adenylate cyclase) in HL-60 cells; assay type: cell-based
Method: In vitro cAMP biological evaluation. A homogeneous time resolved fluorescence (HTRF®) components for cAMP was purchased by CisBio (Bedford, Mass.). HL-60 cells were grown in 10% charcoal-stripped RPMI media for 72 hours prior to assays. Cells were centrifuged and counted with a hemocytometer from Hausser Scientific (Horsham, Pa.). The total number of cells needed to complete the assay was determined based upon 8,000 cells/well. The determined number of cells was diluted in 5:1 (5×) stimulation buffer contain 500 μM of 3-isobutyl-1-methylxanthine (IBMX) (Sigma Aldrich, Saint Louis, Mo.). To an HTRF 96-well low volume white plate from CisBio, 5 μL of cold cell suspension was added to each plate, followed by 4 μL of (2.5×) of agonist or stimulation buffer (negative control and non-stimulated cells). Cells were covered with a clear plastic film and incubated at 37° C. for 15 mins in an incubator. After 15 mins cell 1 μL of 10 μM (10×) forskolin was added to each well. The plate was once again sealed and incubated at 37° C. for 15 mins. After 15 mins 5 μL of cAMP-d2 (acceptor) was added to all wells, including controls. Conversely, 5 μL of monoclonal anti-cAMP Eu3^+ cryptate (donor) was added to only the wells with test compound and non-stimulated cells. Following addition, the plate was sealed, covered with aluminum foil, and incubated at room temperature for 30 mins. After the allotted time cells were read using Flexstation3 and with λex 314 nm and λem 665 nm. For an antagonism platform the procedure was slightly altered. The EC80 of G-1 was recalculated based upon cAMP agonism results. To the plate, 2 μL of (5×) antagonist were added dose wise followed by the addition of 5 μL of cold cell suspension to all wells (top and bottom well were designated as G-1 control and forskolin control, respectively). Cells and antagonists were incubated for 15 mins at 37° C. After 15 mins, 2 μL of the (5×) EC80 of G-1 was added to wells with antagonist. […] Cells were allowed to equilibrate at room temperature for 30 minutes before being read at λex 314 nm and λem 665 nm.

Row | Structure (SMILES) | IC50 [1] | also measured
1 | CC(C)(C)c1ccc(NCc2ccc(-c3ccccc3)cc2)c(C2CCCCC2)c1 [Compound 20] | 132 ± 145 nM | 
2 | Cc1ccc(CNc2ccc(C(C)(C)C)cc2C2CCCCC2)cc1 [Compound 21] | 60.8 ± 18 nM | ERβ binding [2]: do not exhibit binding; ERα binding ([3]; 10 μM (highest concentration)): a low level of binding; ERα binding ([3]; below 10 μM): do not exhibit binding; Antagonism of G-1 induced inhibition of adenylate cyclase ([4]; 100 nM): also observed, less so; Antagonism of G-1 induced inhibition of adenylate cyclase ([4]; 1 μM exposure): caused a decrease in adenylate cyclase inhibition; Reduction of G-1 induced inhibition of cAMP formation / adenylate cyclase ([4]; EC80 of G-1, 1 μM forskolin, concentration not given): able to decrease inhibition of adenylate cyclase
3 | CC(C)(C)c1ccc(NCc2ccc(Cl)cc2)c(C2CCCCC2)c1 [Compound 24] | 141 ± 14 nM | 
4 | CC(C)(C)c1ccc(NCc2ccc(Cl)c(Cl)c2)c(C2CCCCC2)c1 [Compound 25] | 657 ± 94 nM | 

Second part, led by results:

Row | IC50 [1] | Structure (SMILES) | also measured
5 | 260 ± 110 nM | CC(C)c1ccc(NCc2ccc3ccccc3c2)c(C2CCCCC2)c1 [Compound 5] | 
6 | 874 ± 49 nM | COc1ccc(CNc2ccc(C(C)(C)C)cc2C2CCCCC2)cc1 [Compound 22] | 
7 | 331 ± 160 nM | CC(C)(C)c1ccc(NCc2ccccc2)c(C2CCCCC2)c1 [Compound 23] | 
